According to patent US9856279B2 (AGIOS PHARMACEUTICALS, INC, priority 2011, dated 2018):

Target: IDH1 R132H (Homo sapiens, UniProt O75874, R132H)
Assay: Assay for IDH1 R132H inhibitors (NADPH/aKG, resazurin detection)
Type: biochemical
Details: Table 3; enzyme assay, 50 minutes at room temperature; read-out: IC50 (IDH1 R132H Inhibition)
Procedure: Assays were conducted in a volume of 76 μl assay buffer (150 mM NaCl, 10 mM MgCl2, 20 mM Tris pH 7.5, 0.03% bovine serum albumin) as follows in a standard 384-well plate: To 25 ul of substrate mix (8 uM NADPH, 2 mM aKG), 1 μl of test compound was added in DMSO. The plate was centrifuged briefly, and then 25 μl of enzyme mix was added (0.2 μg/ml IDH1 R132H) followed by a brief centrifugation and shake at 100 RPM. The reaction was incubated for 50 minutes at room temperature, then 25 μl of detection mix (30 μM resazurin, […]) was added and the mixture further incubated for 5 minutes at room temperature. The conversion of resazurin to resorufin was detected by fluorescent spectroscopy at Ex544 Em590 c/o 590.

IDH1 R132H, sequence (O75874 whole entry R132H): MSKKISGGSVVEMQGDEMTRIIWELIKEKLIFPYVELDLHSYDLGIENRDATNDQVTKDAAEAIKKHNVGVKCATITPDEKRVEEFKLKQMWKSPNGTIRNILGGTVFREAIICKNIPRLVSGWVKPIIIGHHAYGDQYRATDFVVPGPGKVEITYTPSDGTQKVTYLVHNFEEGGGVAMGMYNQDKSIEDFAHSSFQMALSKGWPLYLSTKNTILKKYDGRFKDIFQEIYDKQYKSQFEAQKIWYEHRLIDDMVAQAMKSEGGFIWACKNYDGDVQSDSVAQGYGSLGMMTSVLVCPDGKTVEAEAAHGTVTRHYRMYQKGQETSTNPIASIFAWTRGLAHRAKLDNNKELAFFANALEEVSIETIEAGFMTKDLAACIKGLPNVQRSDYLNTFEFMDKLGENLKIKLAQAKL

Compound | IC50 [µM]
N#Cc1c(-c2ccccc2)cc(C2CCCCC2)nc1N1CCN(C(=O)c2ccco2)CC1 [Compound 137, 6-cyclohexyl-2-(4-(furan-2-carbonyl)piperazin-1-yl)-4-phenylnicotinonitrile] | 5 to 15
CC1CN(c2nc(C3CCCCC3)cc(-c3ccccc3)c2C#N)CCN1C(=O)c1ccoc1 (stereo not shown) [Compound 138, 6-cyclohexyl-2-(4-(furan-3-carbonyl)-3-methylpiperazin-1-yl)-4-phenylnicotinonitrile] | 1 to 5
CC(C)c1nc(N2CCN(C(=O)Cc3ccccc3)C(C)C2)c(C#N)cc1-c1ccccc1 (stereo not shown) [Compound 139, 6-isopropyl-2-(3-methyl-4-(2-phenylacetyl)piperazin-1-yl)-5-phenylnicotinonitrile] | 1 to 5
CC(C)c1nc(N2C[C@@H](C)N(C(=O)Cc3ccccc3)[C@@H](C)C2)c(C#N)cc1-c1ccccc1 [Compound 140, 2-((3S,5R)-3,5-dimethyl-4-(2-phenylacetyl)piperazin-1-yl)-6-isopropyl-5-phenylnicotinonitrile] | 1 to 5
CC(C)c1nc(N2C[C@@H](C)N(C(=O)c3ccoc3)[C@@H](C)C2)c(C#N)cc1-c1ccccc1 [Compound 141, 2-((3S,5R)-4-(furan-3-carbonyl)-3,5-dimethylpiperazin-1-yl)-6-isopropyl-5-phenylnicotinonitrile] | 5 to 15
C[C@@H]1CN(c2nc(C3CCCCC3)cc(-c3ccccc3)c2C#N)C[C@H](C)N1C(=O)c1ccoc1 [Compound 142, 6-cyclohexyl-2-((3S,5R)-4-(furan-3-carbonyl)-3,5-dimethylpiperazin-1-yl)-4-phenylnicotinonitrile] | 1 to 5
CC(C)c1nc(N2CCN(C(=O)Cc3ccccc3)[C@H](C)C2)c(C#N)cc1-c1ccccc1 [Compound 143, (R)-6-isopropyl-2-(3-methyl-4-(2-phenylacetyl)piperazin-1-yl)-5-phenylnicotinonitrile] | 1 to 5
CC(C)c1nc(N2CCN(C(=O)c3ccoc3)[C@@H](C)C2)c(C#N)cc1-c1ccccc1 [Compound 144, (S)-2-(4-(furan-3-carbonyl)-3-methylpiperazin-1-yl)-6-isopropyl-5-phenylnicotinonitrile] | 1 to 5
COc1ccccc1-c1cc(C(C)C)nc(N2CCN(C(=O)Cc3ccccc3)CC2)c1C#N [Compound 146, 6-isopropyl-4-(2-methoxyphenyl)-2-(4-(2-phenylacetyl)piperazin-1-yl)nicotinonitrile] | 5 to 15
COc1ccccc1-c1cc(C(C)C)nc(N2CCN(C(=O)c3ccco3)C(C)C2)c1C#N (stereo not shown) [Compound 147, 2-(4-(furan-2-carbonyl)-3-methylpiperazin-1-yl)-6-isopropyl-4-(2-methoxyphenyl)nicotinonitrile] | 5 to 15
COc1ccccc1-c1cc(C(C)C)nc(N2CCN(C(=O)c3ccoc3)[C@H](C)C2)c1C#N [Compound 148, (R)-2-(4-(furan-3-carbonyl)-3-methylpiperazin-1-yl)-6-isopropyl-4-(2-methoxyphenyl)nicotinonitrile] | 1 to 5
COc1ccccc1-c1cc(C(C)C)nc(N2CCN(C(=O)Cc3ccccc3)C(C)C2)c1C#N (stereo not shown) [Compound 149] | 1 to 5
CC(C)c1nc(N2CCN(C(=O)c3ccoc3)[C@H](C)C2)c(C#N)cc1-c1ccccc1 [Compound 150, (R)-2-(4-(furan-3-carbonyl)-3-methylpiperazin-1-yl)-6-isopropyl-5-phenylnicotinonitrile] | 1 to 5
COc1cccc(-c2cc(C(C)C)nc(N3CCN(C(=O)c4ccoc4)[C@H](C)C3)c2C#N)c1 [Compound 151, (R)-2-(4-(furan-3-carbonyl)-3-methylpiperazin-1-yl)-6-isopropyl-4-(3-methoxyphenyl)nicotinonitrile] | 1 to 5
CC(C)c1cc(-c2cccc(O)c2)c(C#N)c(N2CCN(C(=O)c3ccoc3)[C@H](C)C2)n1 [Compound 152, (R)-2-(4-(furan-3-carbonyl)-3-methylpiperazin-1-yl)-4-(3-hydroxyphenyl)-6-isopropylnicotinonitrile] | 1 to 5
CC(C)c1nc(N2CCN(C(=O)c3ccoc3)C(c3ccccc3)C2)c(C#N)cc1-c1ccccc1 (stereo not shown) [Compound 153, 2-(4-(furan-3-carbonyl)-3-phenylpiperazin-1-yl)-6-isopropyl-5-phenylnicotinonitrile] | 5 to 15
CC(C)c1cc(-c2ccccc2)c(C#N)c(N2CCN(C(=O)c3ccoc3)C(c3ccccc3)C2)n1 (stereo not shown) [Compound 154, 2-(4-(furan-3-carbonyl)-3-phenylpiperazin-1-yl)-6-isopropyl-4-phenylnicotinonitrile] | 5 to 15
CC(C)c1cc(-c2ccccc2)c(C#N)c(N2CCN(C(=O)c3ccco3)C(c3ccccc3)C2)n1 (stereo not shown) [Compound 155, 2-(4-(furan-2-carbonyl)-3-phenylpiperazin-1-yl)-6-isopropyl-4-phenylnicotinonitrile] | 5 to 15
CC(C)c1cc(-c2cccc(F)c2)c(C#N)c(N2CCN(C(=O)c3ccoc3)[C@H](C)C2)n1 [Compound 156] | 1 to 5
CC(C)c1cc(-c2ccccc2O)c(C#N)c(N2CCN(C(=O)c3ccoc3)[C@H](C)C2)n1 [Compound 157, (R)-2-(4-(furan-3-carbonyl)-3-methylpiperazin-1-yl)-4-(2-hydroxyphenyl)-6-isopropylnicotinonitrile] | 5 to 15
Cc1ccccc1-c1cc(C(C)C)nc(N2CCN(C(=O)c3ccoc3)[C@H](C)C2)c1C#N [Compound 158] | 1 to 5
CC(C)c1nc(N2CCN(C(=O)c3ccoc3)CC2c2ccccc2)c(C#N)cc1-c1ccccc1 (stereo not shown) [Compound 159, 2-(4-(furan-3-carbonyl)-2-phenylpiperazin-1-yl)-6-isopropyl-5-phenylnicotinonitrile] | 5 to 15
CC(C)c1cc(-c2ccccc2)c(C#N)c(N2CCN(C(=O)c3ccoc3)CC2c2ccccc2)n1 (stereo not shown) [Compound 160, 2-(4-(furan-3-carbonyl)-2-phenylpiperazin-1-yl)-6-isopropyl-4-phenylnicotinonitrile] | 5 to 15
CC(C)c1nc(N2CCN(C(=O)c3ccoc3)[C@H](C)C2)c(C#N)cc1-c1cccc(F)c1 [Compound 161, (R)-5-(3-fluorophenyl)-2-(4-(furan-3-carbonyl)-3-methylpiperazin-1-yl)-6-isopropylnicotinonitrile] | 1 to 5
CC(=O)Oc1ccccc1-c1cc(C(C)C)nc(N2CCN(C(=O)c3ccoc3)[C@H](C)C2)c1C#N [Compound 162, (R)-2-(3-cyano-2-(4-(furan-3-carbonyl)-3-methylpiperazin-1-yl)-6-isopropylpyridin-4-yl)phenylacetate] | 1 to 5
CCOc1ccccc1-c1cc(C(C)C)nc(N2CCN(C(=O)c3ccoc3)[C@H](C)C2)c1C#N [Compound 163, (R)-4-(2-ethoxyphenyl)-2-(4-(furan-3-carbonyl)-3-methylpiperazin-1-yl)-6-isopropylnicotinonitrile] | 1 to 5
Cc1occc1C(=O)N1CCN(c2nc(C(C)C)c(-c3ccccc3)cc2C#N)C[C@H]1C [Compound 164, (R)-6-isopropyl-2-(3-methyl-4-(2-methylfuran-3-carbonyl)piperazin-1-yl)-5-phenylnicotinonitrile] | 1 to 5
CC(C)c1nc(N2CCN(C(=O)Cc3cccs3)[C@H](C)C2)c(C#N)cc1-c1ccccc1 [Compound 165, (R)-6-isopropyl-2-(3-methyl-4-(2-(thiophen-2-yl)acetyl)piperazin-1-yl)-5-phenylnicotinonitrile] | 1 to 5
